Measurements taken from ChEMBL document CHEMBL1201861, “Genomics of Drug Sensitity in Cancer screening data, Wellcome Trust Sanger Institute”.

Columns and labels:
Experiment in all cases: cells
NCI-H209 = format: functional, cell-based, Homo sapiens; conditions: nci-h209;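 note: growth inhibition of human NCI-H209 cells, measured by a cell viability assay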
Description: SANGER: Inhibition of human NCI-H209 cell growth in a cell viability assay.

no-11 = format: functional, cell-based, Homo sapiens;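 note: growth inhibition of human NO-11 cells, read out with a cell viability assay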
Description: SANGER: Inhibition of human no-11 cell growth in a cell viability assay.

SW 954 = format: functional, cell-based, Homo sapiens;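 note: growth inhibition of SW954 human cancer cells, read out as cell viability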
Description: SANGER: Inhibition of human SW954 cell growth in a cell viability assay.

MFH-ino = format: functional, cell-based, Homo sapiens; conditions: mfh-ino;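 note: growth inhibition of human MFH-ino cells, read out by a cell viability assay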
Description: SANGER: Inhibition of human MFH-ino cell growth in a cell viability assay.

EW-3 = format: functional, cell-based, Homo sapiens; conditions: ew-3;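 note: cell viability assay read-out, IC50 reflects inhibition of growth of the EW-3 cells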
Description: SANGER: Inhibition of human EW-3 cell growth in a cell viability assay.

HCC 2998 = format: functional, cell-based, Homo sapiens;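 note: growth inhibition of human HCC2998 cells, measured with a cell viability read-out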
Description: SANGER: Inhibition of human HCC2998 cell growth in a cell viability assay.

NB10 = format: functional, cell-based, Homo sapiens;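 note: growth inhibition of NB10 cells, read out by a cell viability assay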
Description: SANGER: Inhibition of human NB10 cell growth in a cell viability assay.

BB30-HNC = format: functional, cell-based, Homo sapiens;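 note: growth inhibition of the cultured cell line, read out by a cell viability assay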
Description: SANGER: Inhibition of human BB30-HNC cell growth in a cell viability assay.

EM-2 = format: functional, cell-based, Homo sapiens; conditions: em-2;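 note: growth inhibition of EM-2 cells, read out with a cell viability assay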
Description: SANGER: Inhibition of human EM-2 cell growth in a cell viability assay.

GT3TKB = format: functional, cell-based, Homo sapiens;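 note: growth inhibition of the cell line, read out with a cell viability assay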
Description: SANGER: Inhibition of human GT3TKB cell growth in a cell viability assay.

RPMI-8226 = format: functional, cell-based, Homo sapiens; conditions: rpmi-8226
Description: SANGER: Inhibition of human RPMI-8226 cell growth in a cell viability assay.

NCI-H226 = format: functional, cell-based, Homo sapiens;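 note: cell viability read-out used to gauge growth inhibition of the cells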
Description: SANGER: Inhibition of human NCI-H226 cell growth in a cell viability assay.

HOP-62 = format: functional, cell-based, Homo sapiens;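 note: cell growth inhibition determined with a viability assay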
Description: SANGER: Inhibition of human HOP-62 cell growth in a cell viability assay.

OCUB-M = format: functional, cell-based, Homo sapiens;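 note: growth inhibition of the cancer cell line, read out through a cell viability assay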
Description: SANGER: Inhibition of human OCUB-M cell growth in a cell viability assay.

U-87 MG = format: functional, cell-based, Homo sapiens, U-87MG ATCC;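 note: growth inhibition of the cells measured with a viability assay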
Description: SANGER: Inhibition of human U-87-MG cell growth in a cell viability assay.

SF-268 = format: functional, cell-based, Homo sapiens;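 note: growth inhibition of SF-268 cells determined with a cell viability assay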
Description: SANGER: Inhibition of human SF268 cell growth in a cell viability assay.

PSN1 = format: functional, cell-based, Homo sapiens;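 note: suppression of growth of human PSN1 cells, read out by a cell viability assay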
Description: SANGER: Inhibition of human PSN1 cell growth in a cell viability assay.

MPP-89 = format: functional, cell-based, Homo sapiens;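 note: growth inhibition of human MPP-89 cells, read out with a cell viability assay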
Description: SANGER: Inhibition of human MPP-89 cell growth in a cell viability assay.

EW-16 = format: functional, cell-based, Homo sapiens;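 note: growth inhibition of human EW-16 cells, read out as cell viability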
Description: SANGER: Inhibition of human EW-16 cell growth in a cell viability assay.

NEC8 = format: functional, cell-based, Homo sapiens;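 note: growth inhibition of human NEC8 cells, read out by a cell viability assay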
Description: SANGER: Inhibition of human NEC8 cell growth in a cell viability assay.

TK-10 = format: functional, cell-based, Homo sapiens;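 note: growth inhibition of TK-10 cells, read out in a cell viability assay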
Description: SANGER: Inhibition of human TK10 cell growth in a cell viability assay.

GAK = format: functional, cell-based, Homo sapiens;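 note: cell growth inhibition read out by a cell viability assay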
Description: SANGER: Inhibition of human GAK cell growth in a cell viability assay.

ACN = format: functional, cell-based, Homo sapiens;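 note: growth inhibition of the human ACN cell line, read out via cell viability testing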
Description: SANGER: Inhibition of human ACN cell growth in a cell viability assay.

ES8 = format: functional, cell-based, Homo sapiens;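 note: growth inhibition of human ES8 cells, read out with a cell viability assay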
Description: SANGER: Inhibition of human ES8 cell growth in a cell viability assay.

LS-411N = format: functional, cell-based, Homo sapiens
KINGS-1 = format: functional, cell-based, Homo sapiens;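 note: cell viability assay measuring suppression of KINGS-1 cell growth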
Description: SANGER: Inhibition of human KINGS-1 cell growth in a cell viability assay.

MZ7-mel = format: functional, cell-based, Homo sapiens;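 note: growth inhibition of human MZ7-mel cells, measured by a cell viability assay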
Description: SANGER: Inhibition of human MZ7-mel cell growth in a cell viability assay.

A704 = format: functional, cell-based, Homo sapiens; conditions: a704;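 note: growth inhibition of human A704 cells, read out with a cell viability assay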
Description: SANGER: Inhibition of human A704 cell growth in a cell viability assay.

SHP77 = format: functional, cell-based, Homo sapiens, SHP-77;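 note: growth inhibition of human SHP-77 cells measured by a cell viability assay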
Description: SANGER: Inhibition of human SHP-77 cell growth in a cell viability assay.

SH-4 = format: functional, cell-based, Homo sapiens;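 note: growth inhibition of SH-4 cells, read out with a cell viability assay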
Description: SANGER: Inhibition of human SH-4 cell growth in a cell viability assay.

ALL-PO = format: functional, cell-based, Homo sapiens; conditions: all-po;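 note: growth inhibition of ALL-PO cells, read out by a cell viability assay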
Description: SANGER: Inhibition of human ALL-PO cell growth in a cell viability assay.

COLO-668 = format: functional, cell-based, Homo sapiens
Description: SANGER: Inhibition of human COLO-668 cell growth in a cell viability assay.

KNS-81-FD = format: functional, cell-based, Homo sapiens;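 note: growth inhibition of KNS-81-FD cells, read out with a cell viability assay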
Description: SANGER: Inhibition of human KNS-81-FD cell growth in a cell viability assay.

HEL = format: functional, cell-based, Homo sapiens;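 note: growth inhibition of HEL cells, read out with a cell viability assay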
Description: SANGER: Inhibition of human HEL cell growth in a cell viability assay.

ES1 = format: functional, cell-based, Homo sapiens;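 note: growth inhibition of ES1 cells, read out with a cell viability assay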
Description: SANGER: Inhibition of human ES1 cell growth in a cell viability assay.

LC-2-ad = format: functional, cell-based, Homo sapiens;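 note: growth inhibition of human LC-2-ad cells, read out with a cell viability assay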
Description: SANGER: Inhibition of human LC-2-ad cell growth in a cell viability assay.

A498 = format: functional, cell-based, Homo sapiens;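 note: growth inhibition of human A498 cells, read out with a cell viability assay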
Description: SANGER: Inhibition of human A498 cell growth in a cell viability assay.

KM-H2 = format: functional, cell-based, Homo sapiens; conditions: km-h2;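 note: growth inhibition of KM-H2 cells, read out by a cell viability assay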
Description: SANGER: Inhibition of human KM-H2 cell growth in a cell viability assay.

KE-37 = format: functional, cell-based, Homo sapiens; conditions: ke-37;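 note: growth inhibition of KE-37 cells, read out with a cell viability assay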
Description: SANGER: Inhibition of human KE-37 cell growth in a cell viability assay.

D-502MG = format: functional, cell-based, Homo sapiens
Description: SANGER: Inhibition of human D-502MG cell growth in a cell viability assay.

SW982 = format: functional, cell-based, Homo sapiens;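 note: growth inhibition of SW982 cells, read out with a cell viability assay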
Description: SANGER: Inhibition of human SW982 cell growth in a cell viability assay.

MZ2-MEL = format: functional, cell-based, Homo sapiens;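 note: growth inhibition of MZ2-MEL cells read out with a cell viability assay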
Description: SANGER: Inhibition of human MZ2-MEL cell growth in a cell viability assay.

BT-474 = format: functional, cell-based, Homo sapiens
Description: SANGER: Inhibition of human BT-474 cell growth in a cell viability assay.

SW684 = format: functional, cell-based, Homo sapiens;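 note: growth inhibition of human SW684 cells, measured by a cell viability assay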
Description: SANGER: Inhibition of human SW684 cell growth in a cell viability assay.

SK-MEL-2 = format: functional, cell-based, Homo sapiens;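 note: growth inhibition of human SK-MEL-2 cells measured with a cell viability assay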
Description: SANGER: Inhibition of human SK-MEL-2 cell growth in a cell viability assay.

KMOE-2 = format: functional, cell-based, Homo sapiens; conditions: kmoe-2;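 note: growth inhibition of human KMOE-2 cells, read out with a cell viability assay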
Description: SANGER: Inhibition of human KMOE-2 cell growth in a cell viability assay.

CGTH-W-1 = format: functional, cell-based, Homo sapiens;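 note: growth inhibition of human CGTH-W-1 cells measured by cell viability assay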
Description: SANGER: Inhibition of human CGTH-W-1 cell growth in a cell viability assay.

IST-MEL1 = format: functional, cell-based, Homo sapiens;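 note: growth inhibition of the cell line, read out with a cell viability assay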
Description: SANGER: Inhibition of human IST-MEL1 cell growth in a cell viability assay.

LB996-RCC = format: functional, cell-based, Homo sapiens; conditions: Homo sapiens, LB996-RCC
Description: SANGER: Inhibition of human LB996-RCC cell growth in a cell viability assay.

Question: What does the source list for CISPLATIN?
Answer: IC50 (NCI-H209): 0.537 µM; IC50 (no-11): 15.6 µM; IC50 (SW 954; sw 954): 11.1 µM; IC50 (MFH-ino): 1340 µM; IC50 (EW-3): 1.6 µM; IC50 (HCC 2998; hcc 2998): 271 µM; IC50 (NB10; nb10): 11.5 µM; IC50 (BB30-HNC; bb30-hnc): 24.5 µM; IC50 (EM-2): 71.2 µM; IC50 (GT3TKB; gt3tkb): 3.92 µM; IC50 (RPMI-8226): 192 µM; IC50 (NCI-H226; nci-h226): 41.5 µM; IC50 (HOP-62; hop-62): 659 µM; IC50 (OCUB-M; ocub-m): 22.7 µM; IC50 (U-87 MG; u-87mg atcc): 16.2 µM; IC50 (SF-268; sf-268): 5.12 µM; IC50 (PSN1; psn1): 1.68 µM; IC50 (MPP-89; mpp-89): 16.2 µM; IC50 (EW-16; ew-16): 24.6 µM; IC50 (NEC8; nec8): 2.52 µM; IC50 (TK-10; tk-10): 31 µM; IC50 (GAK; gak): 490 µM; IC50 (ACN; acn): 34.3 µM; IC50 (ES8; es8): 3.43 µM; IC50 (LS-411N; ls-411n): 66.4 µM; IC50 (KINGS-1; kings-1): 42.8 µM; IC50 (MZ7-mel; mz7-mel): 6.68 µM; IC50 (A704): 115 µM; IC50 (SHP77; shp-77): 602 µM; IC50 (SH-4; sh-4): 68.7 µM; IC50 (ALL-PO): 31.1 µM; IC50 (COLO-668; colo-668): 103 µM; IC50 (KNS-81-FD; kns-81-fd): 535 µM; IC50 (HEL; hel): 1.39 µM; IC50 (ES1; es1): 1.02 µM; IC50 (LC-2-ad; lc-2-ad): 12.2 µM; IC50 (A498; a498): 19.6 µM; IC50 (KM-H2): 450 µM; IC50 (KE-37): 31.5 µM; IC50 (D-502MG; d-502mg): 33.1 µM; IC50 (SW982; sw982): 23.1 µM; IC50 (MZ2-MEL; mz2-mel): 13.4 µM; IC50 (BT-474; bt-474): 1100 µM; IC50 (SW684; sw684): 590 µM; IC50 (SK-MEL-2; sk-mel-2): 226 µM; IC50 (KMOE-2): 25.2 µM; IC50 (CGTH-W-1; cgth-w-1): 4.55 µM; IC50 (IST-MEL1; ist-mel1): 9.38 µM

Question: How did the IC50 (no-11; Homo sapiens) turn out when `CC(C)c1ccccc1Cc1cc(C(=O)Nc2ccc(S(=O)(=O)c3ccccc3C(C)(C)C)cc2)c(O)c(O)c1O` was run?
Answer: 2.84 µM

Question: And the IC50 (SW 954; Homo sapiens, SW 954)?
Answer: 0.467 µM

Question: What about the IC50 (HCC 2998; Homo sapiens, HCC 2998) of the same compound?
Answer: 5.89 µM

Question: What about the IC50 (NB10; Homo sapiens, NB10) of the same compound?
Answer: 0.215 µM

Question: What about the IC50 (BB30-HNC; Homo sapiens, BB30-HNC) of the same compound?
Answer: 0.162 µM

Question: And the IC50 (GT3TKB; Homo sapiens, GT3TKB)?
Answer: 0.301 µM

Question: What about the IC50 (NCI-H226; Homo sapiens, NCI-H226) of the same compound?
Answer: 2.46 µM

Question: What about the IC50 (HOP-62; Homo sapiens, HOP-62) of the same compound?
Answer: 0.365 µM

Question: What about the IC50 (OCUB-M; Homo sapiens, OCUB-M) of the same compound?
Answer: 0.243 µM

Question: And the IC50 (U-87 MG; Homo sapiens, U-87 MG)?
Answer: 0.0822 µM

Question: What about the IC50 (SF-268; Homo sapiens, SF-268) of the same compound?
Answer: 0.272 µM

Question: What about the IC50 (LB996-RCC) of the same compound?
Answer: 0.25 µM

Question: What about the IC50 (PSN1; Homo sapiens, PSN1) of the same compound?
Answer: 0.167 µM

Question: And the IC50 (MPP-89; Homo sapiens, MPP-89)?
Answer: 1.27 µM

Question: What about the IC50 (EW-16; Homo sapiens, EW-16) of the same compound?
Answer: 0.185 µM

Question: What about the IC50 (NEC8; Homo sapiens, NEC8) of the same compound?
Answer: 0.145 µM

Question: And the IC50 (TK-10; Homo sapiens, TK-10)?
Answer: 0.462 µM

Question: And the IC50 (GAK; Homo sapiens, GAK)?
Answer: 2.03 µM

Question: And the IC50 (ACN; Homo sapiens, ACN)?
Answer: 0.696 µM

Question: And the IC50 (ES8; Homo sapiens, ES8)?
Answer: 0.119 µM

Question: What about the IC50 (LS-411N; Homo sapiens, LS-411N) of the same compound?
Answer: 1.24 µM

Question: What about the IC50 (KINGS-1; Homo sapiens, KINGS-1) of the same compound?
Answer: 2.75 µM

Question: And the IC50 (MZ7-mel; Homo sapiens, MZ7-mel)?
Answer: 1.73 µM

Question: What about the IC50 (SHP77; Homo sapiens, SHP77) of the same compound?
Answer: 0.451 µM

Question: What about the IC50 (SH-4; Homo sapiens, SH-4) of the same compound?
Answer: 0.227 µM

Question: And the IC50 (COLO-668; Homo sapiens, COLO-668)?
Answer: 5.1 µM

Question: What about the IC50 (KNS-81-FD; Homo sapiens, KNS-81-FD) of the same compound?
Answer: 0.248 µM

Question: What about the IC50 (HEL; Homo sapiens, HEL) of the same compound?
Answer: 0.522 µM

Question: What about the IC50 (ES1; Homo sapiens, ES1) of the same compound?
Answer: 0.13 µM

Question: What about the IC50 (LC-2-ad; Homo sapiens, LC-2-ad) of the same compound?
Answer: 0.424 µM

Question: What about the IC50 (A498; Homo sapiens, A498) of the same compound?
Answer: 1.49 µM

Question: And the IC50 (D-502MG; Homo sapiens, D-502MG)?
Answer: 4.92 µM

Question: And the IC50 (SW982; Homo sapiens, SW982)?
Answer: 0.111 µM

Question: What about the IC50 (MZ2-MEL; Homo sapiens, MZ2-MEL) of the same compound?
Answer: 0.212 µM

Question: And the IC50 (BT-474; Homo sapiens, BT-474)?
Answer: 3.87 µM

Question: And the IC50 (SW684; Homo sapiens, SW684)?
Answer: 8.83 µM

Question: What about the IC50 (SK-MEL-2; Homo sapiens, SK-MEL-2) of the same compound?
Answer: 0.23 µM

Question: What about the IC50 (CGTH-W-1; Homo sapiens, CGTH-W-1) of the same compound?
Answer: 0.186 µM

Question: What about the IC50 (IST-MEL1; Homo sapiens, IST-MEL1) of the same compound?
Answer: 0.228 µM
